Test results as given in patent US20210196779A1, “Compositions and Methods for Treating Steroid Hormone-Related Diseases or Disorders” (YALE UNIVERSITY, priority 2018, published 2021).

Experiments:
H3K9 acetylation = experiment: Western blot, MCF7 and 22RV1 cells, H3K9 acetylation; type: cell-based; conditions: MCF7 and 22RV1 cells (FIGS. 11A-11B), 24 h
Procedure: (§1) Western blot analysis was used to determine the protein expression using protein specific antibodies. β-actin or histone 3 was used to normalize protein loading.
(§2) Total cell lysis was conducted using 2×SDS sample buffer (62.5 mM Tris-HCl, 2% SDS, 10% glycerol, 50 mM DTT, and 0.05% bromophenol blue). The samples were sonicated for 10 s to shear DNA. Cell nuclei were isolated using Tris buffer saline with 0.4% NP40. Cell extracts were then electrophoresed through 10% SDS-polyacrylamide gels and transferred to 0.2 μm nitrocellulose membranes (Bio-Rad Laboratories, Hercules, Calif.) with a Miniprotein II transferring apparatus (Bio-Rad). The membranes were blocked and probed in TBS-T buffer (1×TBS buffer, 0.2% Tween 20) containing 5% non-fat milk. […] Enhanced chemiluminescence reagents (Perkin-Elmer Life Science Products, Boston, Mass.) were used to visualize the immunoreactive bands and the densities of protein bands were scanned analyzed using ImageJ software from the NIH.

Brd2 = experiment: Western blot, MCF7 and 22RV1 cells, Brd2; type: cell-based; conditions: MCF7 (with or without E2) or 22RV1 (with or without DHT), 24 h
Procedure: as §1, §2

MDAMB-231 cells = experiment: Cell growth assay, MDAMB-231 breast cancer cells; type: cell-based; conditions: 4 days
Procedure: (§3) MCF7, T47D, MDA-MB-453, MDA-MB-231 breast cancer cells were grown in corning T75 cell culture flask in RPMI1640 medium supplemented with 5% FBS, 50 μg/ml Kanamycin in a 37° C., 5% CO2 incubator.
(§4) 20,000 cells in 1 ml of medium (phenol red free RPMI1640, 5% charcoal-dialysis FBS, 50 μg/ml Kanamyacin) were seeded per well of a 24-well plate and incubated in a 37° C. incubator with 5% CO2 overnight. Different concentrations of herbal extract were added to each well in order to have final concentrations from 50 μg/ml to 500 μg/ml. For prostate cancer cells, DHT (25 nM) was used to stimulate androgen receptor activity. For glucocorticoid receptor overexpressed LNCaP cells, dexamethasone (50 nM) was used to stimulate glucocorticoid receptor activity. For all breast cancer cells, E2 (10 nM) was used to stimulate ER activity. Control medium without any steroid hormone was used as a control setting. After 4 days of incubation, cells were fixed and stained for 2 h with 0.5% methylene blue in 50% ethanol, followed by washing with tap water to remove unbound dye. Plates were air dried and then cells were dissolved in 1% sarkosyl (sodium lauroyl sarcosinate) by shaking at room temperature for 3 h. Cell growth was quantified based on the amount of methylene blue adsorbed by the cells as measured by a spectrophotometer (Molecular Devices) at 595 nm. […]

[1] = test system: histone 2AX serine 139 phosphorylation; experiment: Western blot, MCF7 cells, H2AX-ser139; type: cell-based; conditions: presence or absence of E2, 24 h
Procedure: (§5) Western blot analysis was used to determine the protein expression using protein specific antibodies.
as §2, with “milk. Monoclonal rabbit anti-AR (1:5000), was used to detect androgen receptor (Abcam #133273), Glucocorticoid Receptor (D8H2) XP® Rabbit mAb #3660, ERa Antibody (F-10): sc-8002, BRD4 (E2A7X) Rabbit mAb #13440, Brd2 (D89B4) Rabbit mAb #5848, PARP (46D11) Rabbit mAb #9532, Acetyl-Histone H3 (Lys27) (D5E4) XP® Rabbit mAb #8173 and a monoclonal actin antibody diluted 1:2500 (Sigma, St. Louis, Mo.) was used to detect β-actin as the internal control to confirm equal protein loading.” for “milk.”

tumor protein p53 = experiment: Western blot, MCF7 cells, p53; type: cell-based; conditions: wt MCF7 cells, 24 h
Procedure: as §5
as §2, with “milk. Monoclonal rabbit anti-AR (1:5000), was used to detect androgen receptor (Abcam #133273), Glucocorticoid Receptor (D8H2) XP® Rabbit mAb #3660, ERa Antibody (F-10): sc-8002, BRD4 (E2A7X) Rabbit mAb #13440, Brd2 (D89B4) Rabbit mAb #5848, PARP (46D11) Rabbit mAb #9532, Acetyl-Histone H3 (Lys27) (D5E4) XP® Rabbit mAb #8173 and a monoclonal actin antibody diluted 1:2500 (Sigma, St. Louis, Mo.) was used to detect β-actin as the internal control to confirm equal protein loading.” for “milk.”

AR (stimulated with DHT) = AR (stimulated with DHT) (Homo sapiens, UniProt P10275, T878A); experiment: AR driven luciferase activity (DHT) in LNCaP / LNCaP-GR cells; conditions: LNCaP / LNCaP-GR luciferase reporter cells
Chain of AR (stimulated with DHT) (P10275 whole entry T878A): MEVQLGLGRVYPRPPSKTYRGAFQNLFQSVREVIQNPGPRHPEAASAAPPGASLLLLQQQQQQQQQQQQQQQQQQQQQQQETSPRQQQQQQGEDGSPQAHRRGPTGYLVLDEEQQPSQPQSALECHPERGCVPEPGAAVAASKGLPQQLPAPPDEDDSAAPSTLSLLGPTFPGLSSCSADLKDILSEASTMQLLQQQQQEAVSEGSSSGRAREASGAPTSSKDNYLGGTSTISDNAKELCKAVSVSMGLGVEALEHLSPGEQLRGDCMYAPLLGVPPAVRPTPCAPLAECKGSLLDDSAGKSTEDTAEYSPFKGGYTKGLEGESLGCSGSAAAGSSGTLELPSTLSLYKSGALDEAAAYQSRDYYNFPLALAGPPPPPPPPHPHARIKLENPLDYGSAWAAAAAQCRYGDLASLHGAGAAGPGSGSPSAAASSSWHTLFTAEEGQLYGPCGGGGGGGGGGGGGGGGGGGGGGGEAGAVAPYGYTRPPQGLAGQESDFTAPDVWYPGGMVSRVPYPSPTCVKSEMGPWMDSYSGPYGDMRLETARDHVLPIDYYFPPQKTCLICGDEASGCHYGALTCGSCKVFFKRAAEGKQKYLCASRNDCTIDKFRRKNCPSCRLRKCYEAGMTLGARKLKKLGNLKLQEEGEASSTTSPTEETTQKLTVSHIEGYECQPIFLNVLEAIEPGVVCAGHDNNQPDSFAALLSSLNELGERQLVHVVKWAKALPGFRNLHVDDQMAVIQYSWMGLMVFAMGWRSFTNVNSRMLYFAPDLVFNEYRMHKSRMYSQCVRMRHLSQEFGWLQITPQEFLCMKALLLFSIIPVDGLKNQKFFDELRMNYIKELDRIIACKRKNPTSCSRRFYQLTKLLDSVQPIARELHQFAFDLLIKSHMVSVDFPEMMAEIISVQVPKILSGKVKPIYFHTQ
Procedure: Both LNCaP and GR overexpressing LNCaP cells were carrying luciferase reporters with AR response elements.
22RV1 or LNCaP prostate cancer cells were used in the screening study. 22RV1 or LNCaP cell lines were stably transfected with PSA promoter-PGL4.2 luciferase reporter.
Reporter cells were treated with herbal extracts at 30, 100, 300, and 1000 μg/ml for 24 h in a 37° C.-CO2 incubator. […] Dexamethasone (50 nM) was used to stimulate glucocorticoid receptor activity Cells were lysed using luciferase lysis buffer after which luciferase buffer with luciferin was added to generate luminescence. Luminescence was recorded using a luminescence microplate reader.

H3K27 acetylation = experiment: Western blot, MCF7 and 22RV1 cells, H3K27 acetylation; type: cell-based; conditions: 24 h
Procedure: as §1, §2

[2] = test system: Poly[ADP-ribose] polymerase-1 (PARP-1); experiment: Western blot, MCF7 cells, PARP-1; type: cell-based; conditions: 24 h
Procedure: as §5
as §2, with “milk. Monoclonal rabbit anti-AR (1:5000), was used to detect androgen receptor (Abcam #133273), Glucocorticoid Receptor (D8H2) XP® Rabbit mAb #3660, ERa Antibody (F-10): sc-8002, BRD4 (E2A7X) Rabbit mAb #13440, Brd2 (D89B4) Rabbit mAb #5848, PARP (46D11) Rabbit mAb #9532, Acetyl-Histone H3 (Lys27) (D5E4) XP® Rabbit mAb #8173 and a monoclonal actin antibody diluted 1:2500 (Sigma, St. Louis, Mo.) was used to detect β-actin as the internal control to confirm equal protein loading.” for “milk.”

Gata3 = experiment: Western blot, MCF7 cells, Gata3; type: cell-based; conditions: 24 h
Procedure: as §5
as §2, with “milk. Monoclonal rabbit anti-AR (1:5000), was used to detect androgen receptor (Abcam #133273), Glucocorticoid Receptor (D8H2) XP® Rabbit mAb #3660, ERa Antibody (F-10): sc-8002, BRD4 (E2A7X) Rabbit mAb #13440, Brd2 (D89B4) Rabbit mAb #5848, PARP (46D11) Rabbit mAb #9532, Acetyl-Histone H3 (Lys27) (D5E4) XP® Rabbit mAb #8173 and a monoclonal actin antibody diluted 1:2500 (Sigma, St. Louis, Mo.) was used to detect β-actin as the internal control to confirm equal protein loading.” for “milk.”

MCF7 cells = experiment: Cell growth assay, MCF7 breast cancer cells; type: cell-based; conditions: in the presence or absence of E2, 4 days
Procedure: as §3, §4

KLK2 mRNA = experiment: qRT-PCR of KLK2 mRNA in 22RV1 cells; type: cell-based, Human; conditions: 22RV1 cells treated overnight, normalized to beta-actin
Procedure: FIGS. 4C-4D are graphs showing the effect of Y1830, RG (or the fraction comprising RG) and RGA (or the fraction comprising RGA) on the mRNA of PSA (FIG. 4C) and KLK2 (FIG. 4D). 22RV1 cells were treated with Y1830, RGA or RG overnight and mRNA was extracted for qRT-PCR to determine the mRNA expression level of PSA and KLK2 as normalized to beta-actin.
RNA was extracted from herb treated cells using the Roche High Pure RNA isolation kit. cDNA was then generated from RNA samples using a Bio-rad iScript Advanced cDNA synthesis kit for RT-qPCR. qPCR was performed using human NRF2, H01, NQO1 and β-actin primers (Table 1) and iTaq™ Universal SYBR® Green Supermix in a CFX PCR machine (Bio-rad). Relative mRNA expression was calculated based on the change of the threshold cycle relative to the internal control, β-actin, using a standard curve generated by purified PCR products.

[3] = test system: different prostate cell lines; experiment: Growth of different prostate cell lines, all conditions; type: cell-based; conditions: under all conditions, up to 500 ng/ml
Procedure: 20,000 cells in 1 ml of medium (phenol red free RPMI1640, 5% charcoal-dialysis FBS, 50 μg/ml Kanamyacin) were seeded per well of a 24-well plate and incubated in a 37° C. incubator with 5% CO2 overnight. […] For prostate cancer cells, DHT (25 nM) was used to stimulate androgen receptor activity. For glucocorticoid receptor overexpressed LNCaP cells, dexamethasone (50 nM) was used to stimulate glucocorticoid receptor activity. For all breast cancer cells, E2 (10 nM) was used to stimulate ER activity. Control medium without any steroid hormone was used as a control setting. After 4 days of incubation, cells were fixed and stained for 2 h with 0.5% methylene blue in 50% ethanol, followed by washing with tap water to remove unbound dye. Plates were air dried and then cells were dissolved in 1% sarkosyl (sodium lauroyl sarcosinate) by shaking at room temperature for 3 h. Cell growth was quantified based on the amount of methylene blue adsorbed by the cells as measured by a spectrophotometer (Molecular Devices) at 595 nm. All experiments were performed in triplicate wells and were repeated at least three times.

Row | inhibition of DHT induced transcriptional response (AR (stimulated with DHT)) | Compound | H3K9 acetylation (H3K9 acetylation) | Brd2 protein expression (Brd2) | inhibition of growth of triple negative MDAMB-231 cells (MDAMB-231 cells) | histone 2AX serine 139 phosphorylation [1] | p53 protein expression (tumor protein p53) | H3K27 acetylation (H3K27 acetylation) | PARP-1 protein expression [2] | Gata3 protein expression (Gata3) | inhibition on the growth of MCF7 cells (MCF7 cells) | inhibition of mRNA expression of KLK2 (KLK2 mRNA) | inhibitory effect on cell growth (in words) [3]
1 | effectively inhibit | CC(=O)OCC1OC(Oc2cc3c(c(O)c2C)C(=O)c2ccc(O)cc2C3=O)C(OC2OC(C)C(O)C(O)C2O)C(O)C1O [RGA, 1,3,6-Trihydroxy-2-methyl-9,10-anthracenedione 3-O-[α-L-Rhamnopyranosyl-(1→2)-6-O-acetyl-β-D-glucopyranoside]] | did not have a large impact | decreased | inhibited the growth | triggered | downregulated | selectively decreased | downregulate | downregulation | – | – | –
2 | – | Cc1c(OC2OC(CO)C(O)C(O)C2OC2OC(C)C(O)C(O)C2O)cc2c(c1O)C(=O)c1ccc(O)cc1C2=O [RG, 1,3,6-Trihydroxy-2-methyl-9,10-anthracenedione 3-O-[α-L-Rhamnopyranosyl-(1→2)-β-D-glucopyranoside]] | – | – | – | – | – | – | – | – | very weak growth inhibition | did not demonstrate this level of activity | did not any show inhibitory effect
